These results are taken from US7371730B2, “Crystals of glucopyranosyloxybenzyl benzene derivative” (Kissei Pharmaceutical Co., Ltd., priority 2002, dated 2008).

A short description of the series: Stability test (storage; HPLC residual percentage and X-ray powder diffraction). Format: physicochemical. Particulars: storage 40° C./75% RH, 2 months, stopper tightly, and 60° C. How it is done: Stability tests were carried out under the following conditions for crystalline forms α and β. Residual percentages of test substances were determined by HPLC, and changes in crystalline form were examined by X-ray powder diffraction analysis.
• detection; 225 nm • column; Inertsil ODS-3 • column temperature; 30° C. • mobile phase; 0.02 mol/L phosphate buffer (pH 3.0): acetonitrile=58:42→30:70 • flow rate; 1.0 mL/min. Storage conditions: • 1) 40° C./75% RH, 2 months, stopper tightly • 2) 60° C., 2 months, stopper tightly

As for `CCOC(=O)OC[C@H]1O[C@@H](Oc2ccccc2Cc2ccc(OC)cc2)[C@H](O)[C@@H](O)[C@@H]1O` [crystalline form α, 2-(4-methoxybenzyl)phenyl 6-O-ethoxycarbonyl-β-D-glucopyranoside], the “changes in crystalline form (X-ray powder diffraction analysis)” value is recorded as “no change” and the “residual percentage of test substance (HPLC)” value is reported as “no change”.
